These are literature values, as cited in patent US20240066028A1, “COMPOSITIONS FOR IMPROVED DELIVERY OF CGRP INHIBITORS” (Pfizer Ireland Pharmaceuticals, priority 2020, published 2024).

The conditions of the data set: FAO/WHO report; cited from earlier work.

sucrose dodecanoate: the NOAEL was 20-30 grams/kilogram/day.
